Data published in patent US11013726B2 (Arbutus Biopharma Corporation, priority 2016, dated 2021).

tested on: HBsAg; test: HBsAg assay; type: cell-based, hepatitis B virus; settings: Hepatitis B virus, HepG2.2.15, 144 h, read-out: sAg EC50, μM, HepG2.2.15 cells, day 6
Method: Inhibition of HBsAg was determined in HepG2.2.15 cells. Cells were maintained in culture medium containing 10% fetal calf serum, […], Glutamine, penicillin/streptomycin. Cells were seeded in 96-well collagen-coated plate at a density of 30,000 cells/well. Serially diluted compounds were added to cells next day at the final DMSO concentration of 0.5%. Cells were incubated with compounds for 2-3 days, after which medium was removed. Fresh medium containing compounds was added to cells for additional 3-4 days. At day 6 after exposure of compounds, supernatant was collected, the HBsAg immunoassay (microplate-based chemiluminescence immunoassay kits, CLIA, Autobio Diagnosics Co., Zhengzhou, China, Catalog # CL0310-2) was used to determine the level of HBsAg according to manufactory instruction. Dose-response curves were generated and the EC50 value (effective concentrations that achieved 50% inhibitory effect) were determined using XLfit software. In addition, cells were seeded at a density of 5,000 cells/well for determination of cell viability in the presence and absence of compounds by using CellTiter-Glo reagent (Promega). Tables 1-3 show EC50 values obtained by the HBsAg assay for selected compounds.

In order of falling EC50:
1. COCCCOc1cc2c(cc1Cl)-c1cc(=O)c(-c3ncccc3C)cn1[C@H](C(C)C)CO2 [Example 137, (R)-2-Chloro-7-isopropyl-3-(3-methoxypropoxy)-10-(3-methylpyridin-2-yl)-6,7-dihydro-11H-benzo[f]pyrido[1,2-d][1,4]oxazepin-11-one]  10 µM
2. COCCCOc1cc2c(cc1Cl)-c1cc(=O)c(NC(=O)NC(C)(C)C)cn1C(C(C)(C)C)C2 (stereo not shown) [Example 126, 3-Tert-butyl-1-[6-tert-butyl-10-chloro-9-(3-methoxypropoxy)-2-oxo-6H,7H-pyrido[2,1-a]isoquinolin-3-yl]urea]  6.1 µM
3. COc1cc2c(n(C)c1=O)-c1cc(=O)c(C(=O)O)cn1[C@H](C(C)C)C2 [Example 165, (S)-6-Isopropyl-3-methoxy-1-methyl-2,10-dioxo-2,5,6,10-tetrahydro-1H-pyrido[1,2-h][1,7]naphthyridine-9-carboxylic acid]  4.3 µM
4. CC(C)[C@@H]1COc2cc(OCc3ccccc3)c(Cl)nc2-c2cc(=O)c(C(=O)O)cn21 [Example 77, (R)-3-(Benzyloxy)-2-chloro-7-isopropyl-11-oxo-6,7-dihydro-11H-dipyrido[1,2-d:2′,3′-f][1,4]oxazepine-10-carboxylic acid]  3.2 µM
5. COCCCOc1cc2c(cc1Cl)-c1cc(=O)c(-c3ncccn3)cn1[C@H](C(C)C)CO2 [Example 135, (R)-2-Chloro-7-isopropyl-3-(3-methoxypropoxy)-10-(pyrimidin-2-yl)-6,7-dihydro-11H-benzo[f]pyrido[1,2-d][1,4]oxazepin-11-one]  2 µM
6. COCCCOc1cc2c(nc1OC)-c1cc(=O)c(-c3nc(C)no3)cn1[C@H](C(C)C)C2 [Example 111, (S)-6-isopropyl-2-methoxy-3-(3-methoxypropoxy)-9-(3-methyl-1,2,4-oxadiazol-5-yl)-5,6-dihydro-10H-pyrido[1,2-h][1,7]naphthyridin-10-one]  0.29 µM
7. COCC1COc2cc3c(cc2OC1)-c1cc(=O)c(C(=O)O)cn1C(C(C)(C)C)C3 (stereo not shown) [Example 96, 6-(Tert-butyl)-11-(methoxymethyl)-2-oxo-6,7,11,12-tetrahydro-2H,10H-[1,4]dioxepino[2,3-g]pyrido[2,1-a]isoquinoline-3-carboxylic acid]  0.14 µM
8. CCOC(=O)c1cn2c(cc1=O)-c1nc(OC)c(OCCCOC)cc1CC2(CC)CC [Example 161, Ethyl 6,6-diethyl-2-methoxy-3-(3-methoxypropoxy)-10-oxo-5,10-dihydro-6H-pyrido[1,2-h][1,7]naphthyridine-9-carboxylate]  0.1 µM
9. COCCCOc1cc2c(cc1Cl)-c1cc(=O)c(-c3ncccn3)cn1C(C(C)(C)C)C2 (stereo not shown) [Example 132, 6-Tert-butyl-10-chloro-9-(3-methoxypropoxy)-3-(pyrimidin-2-yl)-6H,7H-pyrido[2,1-a]isoquinolin-2-one]  0.078 µM
10. CCOCCOc1cc2c(cc1CC)-c1cc(=O)c(C(=O)O)cn1[C@H](C(C)C)CO2 [Example 57, (R)-3-(2-Ethoxyethoxy)-2-ethyl-7-isopropyl-11-oxo-6,7-dihydro-111H-benzo[f]pyrido[1,2-d][1,4]oxazepine-10-carboxylic acid]  0.034 µM
11. COc1cc2c(cc1OC)-c1cc(=O)c(C(=O)O)cn1C(C(C)C)CC2 (stereo not shown) [Example 19, 6-Isopropyl-10,11-dimethoxy-2-oxo-2,6,7,8-tetrahydrobenzo[c]pyrido[1,2-a]azepine-3-carboxylic acid]  0.027 µM
12. CC(C)[C@@H]1COc2cc(OCC(C)(C)CO)c(Cl)cc2-c2cc(=O)c(C(=O)O)cn21 [Example 37, (R)-2-Chloro-3-(3-hydroxy-2,2-dimethylpropoxy)-7-isopropyl-11-oxo-6,7-dihydro-11H-benzo[f]pyrido[1,2-d][1,4]oxazepine-10-carboxylic acid]  0.012 µM

same assay, conditions: read-out: sAg EC50; HepG2.2.15 cells, day 6

With `COCCCOc1cc2c(nc1OC)-c1cc(=O)c(C(=O)O)cn1C(C)(C(C)(C)C)C2` (single isomer, unassigned) [Example 159, 6-(Tert-butyl)-2-methoxy-3-(3-methoxypropoxy)-6-methyl-10-oxo-5,10-dihydro-6H-pyrido[1,2-h][1,7]naphthyridine-9-carboxylic acid] the EC50 was 0.0009 µM.
